Data published in paper PMC12951562, “SH2scan: Mapping SH2 Domain-Ligand Binding Selectivity for Inhibitors and Degraders” (Journal of Medicinal Chemistry, 2026).
Where two headings read alike, the source gives them in different places. Non-standard residues stand in square brackets, D forms with d. Residues, ends and D or L forms follow the SMILES beside them. pY = N[C@@H](Cc1ccc(OP(=O)(O)O)cc1)C(=O)O

Assays:
Test in all cases: biochemical
Type in all cases: binding
[1] = target: T1, CBLB (Homo sapiens, UniProt Q13191); conditions: primary screen, 10 μM
T1 construct: the DNA-tagged SH2 domain concentrations used in this study were <0.1 nM; made in house; host or cells: HEK293 (transient transfection; unpurified extract)
T1 sequence (Q13191 241-343 limits assumed): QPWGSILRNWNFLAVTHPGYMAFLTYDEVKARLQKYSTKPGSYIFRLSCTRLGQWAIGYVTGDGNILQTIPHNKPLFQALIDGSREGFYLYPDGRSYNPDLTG

[2] = target: T2, CRK (Homo sapiens, UniProt P46108)
T2 construct: the DNA-tagged SH2 domain concentrations used in this study were <0.1 nM; made in house; host or cells: HEK293 (transient transfection; unpurified extract)
T2 sequence (P46108 13-118 limits assumed): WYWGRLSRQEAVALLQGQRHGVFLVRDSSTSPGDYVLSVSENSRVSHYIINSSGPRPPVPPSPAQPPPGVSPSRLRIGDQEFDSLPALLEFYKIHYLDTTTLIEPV

[3] = target: T3, GRB10 (Homo sapiens, UniProt Q13322)
T3 construct: the DNA-tagged SH2 domain concentrations used in this study were <0.1 nM; made in house; host or cells: HEK293 (transient transfection; unpurified extract)
T3 sequence (Q13322 493-574 limits assumed): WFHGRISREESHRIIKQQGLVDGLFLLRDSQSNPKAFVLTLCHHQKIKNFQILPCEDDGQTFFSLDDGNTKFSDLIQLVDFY

[4] = target: T4, MATK (Homo sapiens, UniProt P42679)
T4 construct: the DNA-tagged SH2 domain concentrations used in this study were <0.1 nM; made in house; host or cells: HEK293 (transient transfection, unpurified extract)
T4 sequence (P42679 122-211 limits assumed): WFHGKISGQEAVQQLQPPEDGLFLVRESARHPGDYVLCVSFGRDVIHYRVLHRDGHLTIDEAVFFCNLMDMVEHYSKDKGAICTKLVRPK

[5] = target: T5, MIST (Homo sapiens, UniProt Q7Z7G1)
T5 construct: the DNA-tagged SH2 domain concentrations used in this study were <0.1 nM; made in house; host or cells: HEK293 (transient transfection, unpurified extract)
T5 sequence (Q7Z7G1 309-419 limits assumed): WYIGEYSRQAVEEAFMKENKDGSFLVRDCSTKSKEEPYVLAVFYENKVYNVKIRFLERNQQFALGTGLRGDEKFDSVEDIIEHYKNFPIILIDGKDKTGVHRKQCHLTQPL

[6] = target: T6, PIK3R2(SH2dom.N-term.) (Homo sapiens, UniProt O00459); conditions: for remaining activity at 10 µM: read-out: percent of DMSO vehicle control
T6 construct: SH2dom.N-term. denotes SH2 domain closest to N-terminus of protein; made in house; host or cells: HEK293 (transient transfection, unpurified extract)
T6 sequence (O00459 330-425 limits assumed): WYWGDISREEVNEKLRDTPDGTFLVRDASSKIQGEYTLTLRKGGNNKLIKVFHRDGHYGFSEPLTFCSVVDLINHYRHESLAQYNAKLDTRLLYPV

[7] = target: T7, PIK3R3(SH2dom.C-term.) (Homo sapiens, UniProt Q92569); conditions: for remaining activity at 10 µM: read-out: percent of DMSO vehicle control
T7 construct: SH2dom.C-term. denotes SH2 domain closest to C-terminus of protein; made in house; host or cells: HEK293 (transient transfection, unpurified extract)

[8] = target: T8, PLCG2(SH2dom.C-term.) (Homo sapiens, UniProt P16885); conditions: for remaining activity at 10 µM: read-out: percent of DMSO vehicle control
T8 construct: SH2dom.C-term. denotes SH2 domain closest to C-terminus of protein; made in house; host or cells: HEK293 (transient transfection, unpurified extract)
T8 sequence (P16885 646-735 limits assumed): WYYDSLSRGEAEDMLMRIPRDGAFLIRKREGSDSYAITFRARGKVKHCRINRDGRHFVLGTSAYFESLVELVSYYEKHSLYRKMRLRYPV

[9] = target: T9, SHC3 (Homo sapiens, UniProt Q92529); conditions: for remaining activity at 10 µM: read-out: percent of DMSO vehicle control
T9 construct: made in house; host or cells: HEK293 (transient transfection), unpurified extract
T9 sequence (Q92529 1-594): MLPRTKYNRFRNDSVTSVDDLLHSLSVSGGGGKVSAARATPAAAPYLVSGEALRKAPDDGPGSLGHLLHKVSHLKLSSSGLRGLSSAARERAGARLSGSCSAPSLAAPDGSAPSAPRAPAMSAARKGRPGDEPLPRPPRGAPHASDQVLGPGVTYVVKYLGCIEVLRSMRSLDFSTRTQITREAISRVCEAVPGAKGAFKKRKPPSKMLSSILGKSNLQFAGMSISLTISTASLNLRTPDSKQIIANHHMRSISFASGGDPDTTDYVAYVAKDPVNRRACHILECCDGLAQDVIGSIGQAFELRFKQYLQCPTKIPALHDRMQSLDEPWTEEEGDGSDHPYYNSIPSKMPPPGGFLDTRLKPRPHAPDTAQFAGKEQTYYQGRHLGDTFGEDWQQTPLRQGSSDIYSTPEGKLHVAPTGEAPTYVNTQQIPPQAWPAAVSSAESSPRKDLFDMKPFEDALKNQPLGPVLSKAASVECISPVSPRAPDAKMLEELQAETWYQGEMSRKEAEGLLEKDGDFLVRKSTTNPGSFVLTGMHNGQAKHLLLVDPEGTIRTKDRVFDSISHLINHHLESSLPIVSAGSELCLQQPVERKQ

[10] = target: T10, SHF (Homo sapiens, UniProt Q7M4L6); conditions: for remaining activity at 10 µM: read-out: percent of DMSO vehicle control
T10 construct: made in house; host or cells: HEK293 (transient transfection), unpurified extract
T10 sequence (Q7M4L6 1-423): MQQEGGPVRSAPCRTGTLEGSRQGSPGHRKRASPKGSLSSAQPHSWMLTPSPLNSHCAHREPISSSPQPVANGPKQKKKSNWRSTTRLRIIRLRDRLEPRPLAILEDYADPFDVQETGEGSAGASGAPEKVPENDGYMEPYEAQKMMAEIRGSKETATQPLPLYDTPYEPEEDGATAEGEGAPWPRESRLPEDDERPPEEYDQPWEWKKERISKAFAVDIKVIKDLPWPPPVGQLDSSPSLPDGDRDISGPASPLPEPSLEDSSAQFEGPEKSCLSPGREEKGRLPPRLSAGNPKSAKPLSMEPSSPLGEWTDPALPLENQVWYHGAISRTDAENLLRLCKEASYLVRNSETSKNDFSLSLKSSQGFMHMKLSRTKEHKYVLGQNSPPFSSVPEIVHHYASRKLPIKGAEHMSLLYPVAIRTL

[11] = target: T11, SOCS2 (Homo sapiens, UniProt O14508); conditions: for remaining activity at 10 µM: read-out: percent of DMSO vehicle control
T11 construct: made in house; host or cells: HEK293 (transient transfection), unpurified extract
T11 sequence (O14508 1-198): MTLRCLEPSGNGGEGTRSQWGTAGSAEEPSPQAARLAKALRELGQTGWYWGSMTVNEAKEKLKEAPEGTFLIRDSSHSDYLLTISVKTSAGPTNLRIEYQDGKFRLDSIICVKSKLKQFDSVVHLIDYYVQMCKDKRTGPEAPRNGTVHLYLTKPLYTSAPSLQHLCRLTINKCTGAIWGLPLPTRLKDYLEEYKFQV

[12] = primary screen, 10 μM, read-out: percent of DMSO vehicle control
[13] = read-out: percent of DMSO vehicle control

SMILES | percent of DMSO vehicle control [1] [%] | Kd [7] [µM] | percent of DMSO vehicle control at 10 µM [2, 13] [%] | percent of DMSO vehicle control at 10 µM [3, 13] [%] | percent of DMSO vehicle control at 10 µM [4, 13] [%] | percent of DMSO vehicle control at 10 µM [5, 13] [%] | remaining activity at 10 µM [6] [%] | remaining activity at 10 µM [7] [%] | remaining activity at 10 µM [8] [%] | remaining activity at 10 µM [9] [%] | remaining activity at 10 µM [10] [%] | remaining activity at 10 µM [11] [%] | also measured
O=C(CCl)Nc1cccc(CNC(=O)[C@H](Cc2ccc(OP(=O)(O)O)cc2)NC(=O)Cc2ccc(F)cc2)c1 [MN551] | 86.8±3.2 | – | – | – | – | – | – | – | – | – | – | – | remaining activity at 10 µM [2, 12]: 72.1 ± 0.5%; remaining activity at 10 µM [3, 12]: 61.8%; remaining activity at 10 µM [4, 12]: 60.4 ± 2.8%; remaining activity at 10 µM [5, 12]: 102%; remaining activity at 10 µM ([6]; primary screen, 10 μM): 101%; Kd ([7]; dose-response, read-out: KD): 4.4 µM; remaining activity at 10 µM ([7]; primary screen, 10 μM): 27.3 ± 3.8%; remaining activity at 10 µM ([8]; primary screen, 10 μM): 133%; remaining activity at 10 µM ([9]; primary screen, 10 μM): 91.2 ± 1.9%; remaining activity at 10 µM ([10]; primary screen, 10 μM): 103%; Kd ([11]; dose-response, read-out: KD): 0.4 µM; remaining activity at 10 µM ([11]; primary screen, 10 μM): 0%
CC[C@H](C)[C@H](NC(=O)[C@H](CCC(=O)O)NC(=O)[C@H](CCC(=O)O)NC(=O)[C@H](Cc1ccc(OP(=O)(O)O)cc1)NC(C)=O)C(=O)N[C@@H](CCC(=O)O)C(N)=O [Ac-pYEEIE-NH2] (Ac-[pY]EEIE-NH2) | 116.1 | 14.9 | – | – | – | – | – | – | – | – | – | – | percent of DMSO vehicle control ([2]; primary screen, 10 μM): 114.0%; percent of DMSO vehicle control ([3]; primary screen, 10 μM): 155.2%; percent of DMSO vehicle control ([4]; primary screen, 10 μM): 197.1%; percent of DMSO vehicle control ([5]; primary screen, 10 μM): 55.1%; percent of DMSO vehicle control ([6]; primary screen, 10 μM): 74.1%; percent of DMSO vehicle control ([7]; primary screen, 10 μM): 27.7±0.9%; percent of DMSO vehicle control ([8]; primary screen, 10 μM): 90.9%; percent of DMSO vehicle control ([9]; primary screen, 10 μM): 98.9±6.8%; percent of DMSO vehicle control ([10]; primary screen, 10 μM): 60.2%; percent of DMSO vehicle control ([11]; primary screen, 10 μM): 104.8%
CC(=O)N1CC[C@H]2CC[C@@H](C(=O)N[C@@H](CCC(N)=O)C(=O)NC(c3ccccc3)c3ccccc3)N2C(=O)[C@@H](NC(=O)c2cc3cc(C(F)(F)P(=O)(O)O)ccc3[nH]2)C1 [SI-109] | 128.3 | – | 119 | 122 | 163 | 104 | 130 | 137 | 98.7 ± 6.9 | 122 | 78.9 ± 3 | 142 | –
CC(=O)N[C@@H](Cc1ccc(CP(=O)(O)O)cc1)C(=O)NC1(C(=O)N[C@@H](CC(N)=O)C(=O)NCCCc2c(O)ccc3ccccc23)CCCCC1 [CGP78850] | 122.1±4.2 | 0.048 | 88.3 ± 0.9 | 88.5 ± 13.4 | 153 ± 7.1 | 102 ± 2.3 | 141 ± 24.2 | 0 | 104 ± 2.7 | 29.2 ± 2.8 | 77.1 ± 2.6 | 119 ± 4.7 | Kd [9]: 1.8 ± 0.24 µM
